Reference: patent publication US11827616B2, “Heterocyclic compounds as pesticides” (Discovery Purchaser Corporation, priority 2018, dated 2023)

Tests used:
Format in all cases: in vivo
Lucilia cuprina = Lucilia cuprina test; details: application rate 100 ppm; L1 larvae; after 2 days
Summary of the method: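 About 20 first-instar larvae were placed in vessels of minced horsemeat with compound at the desired concentration. Compound was dissolved in DMSO and diluted in water. Percent kill scored after 2 days.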

Phaedon cochleariae = Phaedon cochleariae spray test; details: for pest or weed control at 500 g/ha: Phaedon cochleariae, 168 h, read-out: efficacy; for efficacy: application rate 500 g/ha, after 7 days
Summary of the method: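 Chinese cabbage leaf discs sprayed with compound formulated in acetone/DMF and water with 1000 ppm emulsifier, then infested with mustard beetle larvae once dry. Percent larval kill scored after 7 days (100% = all dead, 0% = none).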

Ctenocephalides felis [1] = experiment: Ctenocephalides felis in vitro contact test with adult cat fleas; details: application rate 5 μg/cm^2 (=500 g/ha); after 48 h
Summary of the method: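 Glass tubes coated with acetone solutions of compound (900 ppm giving 5 μg/cm^2), dried, then held 5-10 adult cat fleas at room temperature and ambient humidity. After 48 h, dead or moribund fleas were scored; efficacy expressed as percent affected.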

Ctenocephalides felis [2] = experiment: Ctenocephalides felis oral test; details: application rate 100 ppm in citrated cattle blood; after 2 days
Protocol: Ctenocephalides felis—Oral Test
(§1) Solvent: dimethyl sulfoxide
To produce a suitable active compound formulation, 10 mg of active compound are mixed with 0.5 ml of dimethyl sulfoxide. Dilution with citrated cattle blood gives the desired concentration.
About 20 unfed adult cat fleas (Ctenocephalides felis) are placed into a chamber which is closed at the top and bottom with gauze. A metal cylinder whose bottom end is closed with parafilm is placed onto the chamber. The cylinder contains the blood/active compound formulation, which can be imbibed by the fleas through the parafilm membrane.
After 2 days, the kill in % is determined. 100% means that all of the fleas have been killed; 0% means that none of the fleas have been killed.

Spodoptera frugiperda = Spodoptera frugiperda spray test; details: for pest or weed control at 500 g/ha: Spodoptera frugiperda, 168 h, read-out: efficacy; for efficacy: application rate 500 g/ha, after 7 days
Summary of the method: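 Maize leaf discs sprayed with compound formulated in acetone/dimethylformamide and diluted in water with 1000 ppm alkylaryl polyglycol ether emulsifier. Once dry, discs are infested with fall armyworm caterpillars. Efficacy in % read after 7 days: 100% all caterpillars killed, 0% none killed.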

Rhipicephalus sanguineus = Rhipicephalus sanguineus in vitro contact test with adult brown dog ticks; details: application rate 5 μg/cm^2 (=500 g/ha); after 48 h
Summary of the method: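 Glass tubes coated with compound in acetone (900 ppm solution giving 5 μg/cm^2), then 5-10 adult ticks held in the dark at room temperature and ambient humidity. At 48 h, ticks placed on a 45-50° C. hotplate for up to 5 min; motionless or uncoordinated ones scored dead/moribund, giving % efficacy.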

Boophilus microplus = Boophilus microplus injection test; details: for pest or weed control at 0.02 mg: Rhipicephalus microplus, 168 h, read-out: efficacy (laying of fertile eggs), application rate 20 μg/animal, after 7 days; for efficacy (laying of fertile eggs): application rate 20 μg/animal, after 7 days
Summary of the method: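 Compound dissolved in DMSO; 1 μl injected into the abdomen of engorged adult female ticks, five per group, kept in climate-controlled room. Efficacy scored after 7 days from fertile egg laying (100% = no fertile eggs; 0% = all fertile), with unclear eggs held ~42 days until hatching.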

[3] = tested on: Anopheles gambiae strain RSPH (homozygot kdr); experiment: Anopheles test (ANPHGB surface treatment); details: read-out: efficacy (mortality in %)
Protocol: Anopheles Test (ANPHGB Surface Treatment)
(§2) Solvent: acetone+2000 ppm rapeseed oil methyl ester (RME)
To produce an appropriate active compound formulation, the active compound is dissolved in the solvent (2 mg/ml). The active compound formulation is pipetted onto a glazed tile and, after it has dried off, adult mosquitoes of the species Anopheles gambiae strain RSPH (homozygot kdr) are placed onto the treated tile. The exposure time is 30 minutes.
(§3) 24 hours after contact with the treated surface, mortality in % is determined. 100% means that all mosquitoes have been killed; 0% means that none of the mosquitoes have been killed.

Tetranychus urticae = Tetranychus urticae spray test, OP-resistant; details: application rate 500 g/ha; after 6 days
Summary of the method: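 Bean leaf discs carrying all stages of OP-resistant Tetranychus urticae were sprayed with compound in acetone/dimethylformamide diluted in water containing alkylaryl polyglycol ether emulsifier (1000 ppm). Mortality scored after 6 days as % efficacy (100% = all mites killed).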

[4] = tested on: Anopheles funestus strain FUMOZ-R; experiment: Anopheles test (ANPHFU surface treatment); details: read-out: efficacy (mortality in %)
Protocol: Anopheles Test (ANPHFU Surface Treatment)
as §2
To produce an appropriate active compound formulation, the active compound is dissolved in the solvent (2 mg/ml). The active compound formulation is pipetted onto a glazed tile and, after it has dried off, adult mosquitoes of the species Anopheles funestus strain FUMOZ-R (Hunt et al., Med Vet Entomol. 2005 Sep.; 19 (3):271-5) are placed onto the treated tile. The exposure time is 30 minutes.
as §3

[5] = tested on: Aedes aegypti strain MONHEIM; experiment: Aedes test (AEDSAE surface treatment); details: read-out: efficacy (mortality in %)
Protocol: Aedes Test (AEDSAE Surface Treatment)
as §2
To produce an appropriate active compound formulation, the active compound is dissolved in the solvent (2 mg/ml). The active compound formulation is pipetted onto a glazed tile and, after it has dried off, adult mosquitoes of the species Aedes aegypti strain MONHEIM are placed onto the treated tile. The exposure time is 30 minutes. 24 hours after contact with the treated surface, mortality in % is determined. 100% means that all mosquitoes have been killed; 0% means that none of the mosquitoes have been killed.

[6] = tested on: cattle ticks (Boophilus microplus) Parkhurst strain, SP-resistant; experiment: Boophilus microplus dip test; details: application rate 100 ppm, after 7 days
Protocol: Boophilus microplus—Dip Test
Test animals: cattle ticks (Boophilus microplus) Parkhurst strain, SP-resistant
as §1
10 mg of active compound are dissolved in 0.5 ml of dimethyl sulfoxide. To produce a suitable formulation, the active compound solution is diluted with water to the concentration desired in each case.
This active compound formulation is pipetted into tubes. 8-10 engorged adult female cattle ticks (Boophilus microplus) are transferred into a further tube with holes. The tube is immersed into the active compound formulation, and all the ticks are completely wetted. After the liquid has run out, the ticks are transferred on filter disks into plastic dishes and stored in a climate-controlled room.
Efficacy is assessed after 7 days by laying of fertile eggs. Eggs which are not visibly fertile are stored in a climate-controlled cabinet until the larvae hatch after about 42 days. An efficacy of 100% means that none of the ticks has laid any fertile eggs; 0% means that all the eggs are fertile.

Myzus persicae = Myzus persicae spray test; details: application rate 100 g/ha; after 5 days
Protocol: Myzus persicae—Spray Test
Solvent: 78 parts by weight of acetone • • 1.5 parts by weight of dimethylformamide
Emulsifier: alkylaryl polyglycol ether
To produce a suitable active compound formulation, 1 part by weight of active compound is dissolved with the specified parts by weight of solvent and made up to the desired concentration with water containing an emulsifier concentration of 1000 ppm. To produce further test concentrations, the formulation is diluted with emulsifier-containing water.
Discs of Chinese cabbage leaves (Brassica pekinensis) infested by all stages of the green peach aphid (Myzus persicae) are sprayed with an active compound formulation of the desired concentration.
After 5 days, the efficacy in % is determined. 100% means that all the aphids have been killed; 0% means that no aphids have been killed.

SMILES	efficacy (kill in %) (Lucilia cuprina)	pest or weed control at 500 g/ha (Phaedon cochleariae)	efficacy (fleas dead or moribund) (Ctenocephalides felis [1])	efficacy (kill in %) (Ctenocephalides felis [2])	pest or weed control at 500 g/ha (Spodoptera frugiperda)	efficacy (ticks dead or moribund) (Rhipicephalus sanguineus)	pest or weed control at 0.02 mg (Boophilus microplus)	mortality at 20 mg/m2 [3]	mortality at 100 mg/m2 [3]	efficacy (Tetranychus urticae)	mortality at 20 mg/m2 [4]	mortality at 100 mg/m2 [4]	mortality at 20 mg/m2 [5]	mortality at 100 mg/m2 [5]	efficacy (Phaedon cochleariae)	efficacy (Spodoptera frugiperda)	efficacy (laying of fertile eggs) (Boophilus microplus)	efficacy (laying of fertile eggs) [6]	efficacy (Myzus persicae)
CON(C)CCOc1ccc(COc2ccc(Cl)c3ccccc23)cn1 [Example 2, 2-[(5-{[(4-chloro-1-naphthyl)oxy]methyl}pyridin-2-yl)oxy]-N-methoxy-N-methylethanamine]	100%	100%	100%	80%	100%	100%	100%	80 to 100%	80 to 100%	90%	80 to 100%	80 to 100%	80 to 100%	80 to 100%	–	–	–	–	–
CON(C)CCOc1ccc(COc2cccc3c(Cl)c(Cl)ccc23)nc1 [Example 16]	100%	–	100%	–	–	100%	–	–	–	–	–	–	–	–	83%	83%	100%	95%	–
CON(C)CCOc1cnc(COc2ccc(Cl)c3ccccc23)c(F)c1 [Example 19]	98%	–	100%	80%	–	100%	–	–	–	–	–	–	–	–	100%	100%	100%	100%	–
CON(C)CCOc1cnc(COc2ccc3sc4ccccc4c3c2)c(F)c1 [Example 23]	100%	–	100%	–	–	100%	–	–	–	90%	–	–	–	–	100%	100%	100%	80%	–
CON(C)CCOc1cnc(COc2ccc3oc4ccccc4c3c2)c(C)c1 [Example 30, 2-({6-[(dibenzo[b,d]furan-2-yloxy)methyl]-5-methylpyridin-3-yl}oxy)-N-methoxy-N-methylethanamine]	–	83%	–	–	–	–	100%	80 to 100%	–	100%	80 to 100%	–	80 to 100%	–	–	–	–	–	–
CC(C)N(CCOc1cnc(COc2cccc3c(Cl)c(Cl)ccc23)c(F)c1)C(C)C [Example 39]	–	–	100%	–	–	–	–	–	–	–	–	–	–	–	100%	100%	90%	–	90%
CCOc1cc(OCc2ncc(OCCN(C)OC)cc2F)ccc1Cl [Example 54]	100%	–	100%	–	–	100%	–	–	–	100%	–	–	–	–	100%	100%	100%	100%	–
CON(C)CCOc1cnc(COc2ccc(F)c(-c3cccc(F)c3)c2)c(F)c1 [Example 55]	100%	–	100%	90%	–	100%	–	–	–	100%	–	–	–	–	83%	100%	100%	90%	–
COc1cc(OCc2ncc(OCCN(C)OC)cc2F)ccc1Cl [Example 58]	–	–	–	–	–	–	–	–	–	100%	–	–	–	–	100%	100%	100%	95%	–
COc1cc(OCc2ncc(OCCN(C)OC)cc2F)ccc1Br [Example 86]	–	–	100%	–	–	100%	–	–	–	–	–	–	–	–	–	83%	100%	100%	–
CON(C)CCOc1cnc(COc2ccc(Cl)c3ccccc23)nc1 [Example 99, 2-[(2-{[(4-chloro-1-naphthyl)oxy]methyl}pyrimidin-5-yl)oxy]-N-methoxy-N-methylethanamine]	100%	100%	100%	–	100%	100%	100%	80 to 100%	–	–	80 to 100%	–	80 to 100%	–	–	–	–	100%	–
